Test results taken from patent US20100004267A1, “LIQUID PREPARATION” (ASUBIO PHARMA CO., LTD., priority 2006, published 2010).

Assay: Reduction in surface activity in SUN N8075 aqueous solution (Test example 7)
Format: physicochemical
Parameters: key to Appearance after shaking / Appearance after standing: A: Clear; B+: Almost clear; B: Much less insoluble matters than Control; Clearly less insoluble matter than Control; D: Comparable amount of insoluble matters with Control; E: More insoluble matters than Control; key to General judgment: A: Great effect; B+: Large effect; B: Effective; C: Effective but very small; D: Comparable to Control (No effect); E: Inferior to Control (clouded); key to Foaming property: A: Much less foaming than Control; B: Clearly less foaming than Control; Slightly less foaming than Control; D: Comparable to Control; E: More foaming than Control
Method: Into each test compound solution which was prepared in advance to achieve each adding concentration shown in the Table, SUN N8075 was added and dissolved so that the concentration thereof was 5 mg/mL, and the pH value was adjusted to 3 to 4 as appropriate by hydrochloric acid to prepare a sample solution.
Each 10 mL of sample solution was put into a 10-mL stoppered test tube, and shaken 30 strokes vertically by hand and allowed to stand upright, and under room diffused light, appearance of sample solution after shaking, foaming property (foaming quantity), defoaming time, post standing observation (after standing for 3 days or more) were evaluated.
As a control, an aqueous solution containing no test substance but containing 5 mg/mL of SUN N8075 was examined in a similar manner.

[1] = Control: 5 mg/mL SUN N8075 aqueous solution, no test substance

**Q.** What does the source list for `Cc1cc(OC[C@@H](O)CN2CCN(c3ccc(Cc4ccc(F)cc4)cc3)CC2)c(C)c(C)c1N` [SUN N8075, (2S)-1-(4-amino-2,3,5-trimethylphenoxy)-3-{4-[4-(4-fluorobenzyl)phenyl]-1-piperazinyl}-2-propanol dimethane sulfonate]?
**A.** Appearance after shaking (Captisol 10.00%): A; Appearance after standing (Captisol 10.00%): A; Defoaming time (Captisol 10.00%): A (In 20 minutes); Foaming property (Captisol 10.00%): A; General judgment (Captisol 10.00%): A; Appearance after shaking (Chlorobutanol 0.10%): D; Appearance after standing (Chlorobutanol 0.10%): D; Foaming property (Chlorobutanol 0.10%): C; General judgment (Chlorobutanol 0.10%): D; Appearance after shaking (Chlorobutanol 0.50%): B; Appearance after standing (Chlorobutanol 0.50%): A; Foaming property (Chlorobutanol 0.50%): B; General judgment (Chlorobutanol 0.50%): B+; Appearance after shaking (Chlorobutanol […]): C; Appearance after standing (Chlorobutanol […]): A; Foaming property (Chlorobutanol […]): C; General judgment (Chlorobutanol […]): B; Appearance after shaking/Appearance after standing [1]: Large amount of insoluble matters in wall face and appearance in Control; Foaming property [1]: Very high foaming property in Control; Defoaming time (Control: 5 mg/mL SUN N8075 aqueous solution, no test substance, standing): Not defoamed after standing for 1 week in Control; Appearance after shaking (Ethanol 1.00%): B; Appearance after standing (Ethanol 1.00%): B; Foaming property (Ethanol 1.00%): C; General judgment (Ethanol 1.00%): B; Appearance after shaking (Ethanol 5.00%): D; Appearance after standing (Ethanol 5.00%): E; Foaming property (Ethanol 5.00%): D; General judgment (Ethanol 5.00%): D; Appearance after shaking (Ethanol 10.00%): D; Appearance after standing (Ethanol 10.00%): E; Foaming property (Ethanol 10.00%): D; General judgment (Ethanol 10.00%): D; Appearance after shaking (Ethanol […]): B; Appearance after standing (Ethanol […]): C; Foaming property (Ethanol […]): D; General judgment (Ethanol […]): C; Appearance after shaking (Glycine 100 mM): B; Appearance after standing (Glycine 100 mM): B; Foaming property (Glycine 100 mM): B; General judgment (Glycine 100 mM): B; Appearance after shaking (L-Arginine 30 mM): B+; Appearance after standing (L-Arginine 30 mM): B+; Defoaming time (L-Arginine 30 mM): B (In 60 minutes); Foaming property (L-Arginine 30 mM): B; General judgment (L-Arginine 30 mM): B+; Appearance after shaking (L-Arginine 60 mM): A; Appearance after standing (L-Arginine 60 mM): A; Defoaming time (L-Arginine 60 mM): A (In 20 minutes); Foaming property (L-Arginine 60 mM): A; General judgment (L-Arginine 60 mM): A; Appearance after shaking (L-Histidine 60 mM): A; Appearance after standing (L-Histidine 60 mM): A; Defoaming time (L-Histidine 60 mM): A (In 20 minutes); Foaming property (L-Histidine 60 mM): A; General judgment (L-Histidine 60 mM): A; Appearance after shaking (Meglumine 25 mM): C; Appearance after standing (Meglumine 25 mM): C; Foaming property (Meglumine 25 mM): D; General judgment (Meglumine 25 mM): C; Appearance after shaking (Meglumine 50 mM): A; Appearance after standing (Meglumine 50 mM): A; Defoaming time (Meglumine 50 mM): B (In 60 minutes); Foaming property (Meglumine 50 mM): C; General judgment (Meglumine 50 mM): B; Appearance after shaking (Meglumine 75 mM): A; Appearance after standing (Meglumine 75 mM): A; Defoaming time (Meglumine 75 mM): B (In 60 minutes); Foaming property (Meglumine 75 mM): B; General judgment (Meglumine 75 mM): A; Appearance after shaking (Meglumine 100 mM): A; Appearance after standing (Meglumine 100 mM): A; Defoaming time (Meglumine 100 mM): A (In 20 minutes); Foaming property (Meglumine 100 mM): C; General judgment (Meglumine 100 mM): A; Appearance after shaking (Methane sulfonic acid 15 mM): D; Appearance after standing (Methane sulfonic acid 15 mM): D; Foaming property (Methane sulfonic acid 15 mM): B; General judgment (Methane sulfonic acid 15 mM): D; Appearance after shaking (Propylene glycol 1.00%): B; Appearance after standing (Propylene glycol 1.00%): A; Foaming property (Propylene glycol 1.00%): B; General judgment (Propylene glycol 1.00%): B+; Appearance after shaking (Propylene glycol 5.00%): B; Appearance after standing (Propylene glycol 5.00%): D; Foaming property (Propylene glycol 5.00%): D; General judgment (Propylene glycol 5.00%): D; Appearance after shaking (Propylene glycol 10.00%): C; Appearance after standing (Propylene glycol 10.00%): D; Foaming property (Propylene glycol 10.00%): D; General judgment (Propylene glycol 10.00%): D; Appearance after shaking (Propylene glycol […]): C; Appearance after standing (Propylene glycol […]): D; Foaming property (Propylene glycol […]): D; General judgment (Propylene glycol […]): D; Appearance after shaking (Sodium L-glutamate 30 mM): B+; Appearance after standing (Sodium L-glutamate 30 mM): B+; Foaming property (Sodium L-glutamate 30 mM): B+; General judgment (Sodium L-glutamate 30 mM): B+; Appearance after shaking (Sodium L-glutamate 60 mM): A; Appearance after standing (Sodium L-glutamate 60 mM): A; Defoaming time (Sodium L-glutamate 60 mM): A (In 20 minutes); Foaming property (Sodium L-glutamate 60 mM): B+; General judgment (Sodium L-glutamate 60 mM): A; Appearance after shaking (Sodium chloride 25 mM): D; Appearance after standing (Sodium chloride 25 mM): D; Foaming property (Sodium chloride 25 mM): B; General judgment (Sodium chloride 25 mM): D; Appearance after shaking (Sodium chloride 50 mM): B; Appearance after standing (Sodium chloride 50 mM): B; Foaming property (Sodium chloride 50 mM): A; General judgment (Sodium chloride 50 mM): C; Appearance after shaking (Sodium chloride 75 mM): A; Appearance after standing (Sodium chloride 75 mM): A; Defoaming time (Sodium chloride 75 mM): A (In 20 minutes); Foaming property (Sodium chloride 75 mM): B+; General judgment (Sodium chloride 75 mM): A; Appearance after shaking (Sodium chloride 100 mM): A; Appearance after standing (Sodium chloride 100 mM): A; Defoaming time (Sodium chloride 100 mM): A (In 20 minutes); Foaming property (Sodium chloride 100 mM): B; General judgment (Sodium chloride 100 mM): A
